Data: patent EP0061001A1, “Antiallergic agent comprising derivatives of adenosine” (Yamasa Shoyu Kabushiki Kaisha, priority 1981, dated 1982)
Read-outs that look alike come from different tables or passages of the source.

Key:
[1] = tested on: Passive cutaneous anaphylaxis (PCA); experiment: Passive cutaneous anaphylaxis (PCA) suppressing effect, method of J. Goose et al; format: in vivo, rats (Sprague Dawley-strain); settings: iv, 40 min, rat PCA, compound given intravenously with antigen and Evans blue
Description: According to the method of J. Goose et al (see Immunology 16, 749, 1969), PCA reaction was carried out in the following manner.
To male rats (Sprague Dawley-strain; hereinafter abbreviated as SD-strain), weighing 120 to 150 g, 10 mg/kg of ovalubumin was administered intramuscularly and 2 x 10^10 cells of Bodetalla pertussis vaccine intraperitoneally. After 10 to 12 days, each rat was bled and antiserum was separated.
To other rats (SD-strain, weighing 120 to 150 g) shaved at the back, under ether anesthetization, 0.1 ml of the above antiserum diluted 4-fold was injected intradermally for dermal sensitization. After 48 hours, 1 mg/kg of ovalubumin (antigen), 1 mg/kg of Evans blue (dye) and various N^6-ω-aminoalkyl adenosine compounds and DSCG or isotonic saline were challenged intravenously. After 40 minutes, the diameter of dye spots on the skin and the leak quantity of dye were measured to determine ED50 (50% effective amount) for each compound.
The leak quantity of dye was determined by extracting the dye from the skin peeled off with potassium hydroxide, removing proteins with acetoneafter neutralization with phosphoric acid, and thereafter measuring absorbance at 620 nm of the resultant extract, which step was then followed by calculation therefrom. The N^6-ω-aminoalkyl adenosine compounds provided for the tests are enumerated below: […]

[2] = Acute toxicity tests; settings: mouse, in vivo, ip; male mice, intraperitoneally, free form in isotonic saline solution or suspension; brackets = 95% confidence limit
Description: To ICR-JCL-strain mice (male, weighing 24 to 28 g), various N^6-w-aminoalkyl adenosine compound-s (each in free form) were administered as isotonic saline solutions or suspensions each in a dosage of 0.1 ml/10 g intraperitoneally for determination of LD50.

[3] = diameter of dye spots on the skin after 40 minutes, read-out: ED50 By diameter
[4] = leak quantity of dye after 40 minutes (absorbance at 620 nm), read-out: ED50 By dye quantity

## NCCCNc1ncnc2c1ncn2[C@@H]1O[C@H](CO)[C@@H](O)[C@H]1O [compound 1, N^6-(3-amino-n-propyl)-Ado]
[1]; [3]
  ED50: 0.87 mg/kg
[1]; [4]
  ED50: 0.2 mg/kg

## NCCCCCCCCCCNc1ncnc2c1ncn2[C@@H]1O[C@@H]2COP(=O)(O)O[C@H]2[C@H]1O [compound 15, N^6-(10-amino-n-decanyl)-cAMP]
[1]; [3]
  ED50: 8.2 mg/kg
[1]; [4]
  ED50: 6 mg/kg

## NCCCCCCCCCNc1ncnc2c1ncn2[C@@H]1O[C@@H]2COP(=O)(O)O[C@H]2[C@H]1O [compound 14, N^6-(9-amino-n-nonyl)-cAMP]
[1]; [3]
  ED50: > 3.3 mg/kg
[1]; [4]
  ED50: 3.3 mg/kg

## NCCCCCCNc1ncnc2c1ncn2[C@@H]1O[C@H](CO)[C@@H](O)[C@H]1O [compound 2, N^6-(6-amino-n-hexyl)-Ado]
[1]; [3]
  ED50: 0.15 mg/kg
[1]; [4]
  ED50: 0.06 mg/kg

## O=C(O)c1cc(=O)c2c(OCC(O)COc3cccc4oc(C(=O)O)cc(=O)c34)cccc2o1 [DSCG, disodium cromoglycate, reference compound]
[1]; [3]
  ED50: 3.3 mg/kg
[1]; [4]
  ED50: 3 mg/kg

## NCCCCCCCNc1ncnc2c1ncn2[C@@H]1O[C@H](CO)[C@@H](O)[C@H]1O [compound 3, N^6-(7-amino-n-heptyl)-Ado]
[1]; [3]
  ED50: 0.058 mg/kg
[1]; [4]
  ED50: 0.06 mg/kg
[2]
  LD50: 145 mg/kg

## NCCCCCCNc1ncnc2c1ncn2[C@@H]1O[C@@H]2COP(=O)(O)O[C@H]2[C@H]1O [compound 12, N^6-(6-amino-n-hexyl)-cAMP]
[1]; [3]
  ED50: 3.3 mg/kg
[1]; [4]
  ED50: 3.2 mg/kg
[2]
  LD50: 165 mg/kg

## NCCCCCCNc1ncnc2c1ncn2[C@@H]1O[C@H](COP(=O)(O)O)[C@@H](O)[C@H]1O [compound 6, N^6-(6-amino-n-hexyl)-5'-AMP]
[1]; [3]
  ED50: 0.51 mg/kg
[1]; [4]
  ED50: 0.32 mg/kg

## NCCCCCCCCNc1ncnc2c1ncn2[C@@H]1O[C@H](CO)[C@@H](OP(=O)(O)O)[C@H]1O [compound 10, N^6-(8-amino-n-octyl)-3'-AMP]
[1]; [3]
  ED50: 1.5 mg/kg
[1]; [4]
  ED50: 0.7 mg/kg
[2]
  LD50: 220 mg/kg

## NCCCCCCCCNc1ncnc2c1ncn2[C@@H]1O[C@@H]2COP(=O)(O)O[C@H]2[C@H]1O [compound 13, N^6-(8-amino-n-octyl)-cAMP]
[1]; [3]
  ED50: 3.7 mg/kg
[1]; [4]
  ED50: 3.1 mg/kg

## NCCCCNc1ncnc2c1ncn2[C@@H]1O[C@@H]2COP(=O)(O)O[C@H]2[C@H]1O [compound 11, N^6-(4-amino-n-butyl)-cAMP]
[1]; [3]
  ED50: 15 mg/kg
[1]; [4]
  ED50: 9.4 mg/kg

## NCCCCCCCCCNc1ncnc2c1ncn2[C@@H]1O[C@H](COP(=O)(O)O)[C@@H](O)[C@H]1O [compound 7, N^6-(9-amino-n-nonyl)-5'-AMP]
[1]; [3]
  ED50: 0.29 mg/kg
[1]; [4]
  ED50: 0.16 mg/kg
[2]
  LD50: 195 mg/kg

## NCCCNc1ncnc2c1ncn2[C@@H]1O[C@H](COP(=O)(O)O)[C@@H](O)[C@H]1O [compound 5, N^6-(3-amino-n-propyl)-5'-AMP]
[1]; [3]
  ED50: 0.46 mg/kg
[1]; [4]
  ED50: 0.31 mg/kg

## NCCCCNc1ncnc2c1ncn2[C@@H]1O[C@H](CO)[C@@H](OP(=O)(O)O)[C@H]1O [compound 8]
[1]; [3]
  ED50: 1.7 mg/kg
[1]; [4]
  ED50: 0.64 mg/kg

## NCCCCCCCCCNc1ncnc2c1ncn2[C@@H]1O[C@H](CO)[C@@H](O)[C@H]1O [compound 4, N^6-(9-amino-n-nonyl)-Ado]
[1]; [3]
  ED50: 0.084 mg/kg
[1]; [4]
  ED50: 0.084 mg/kg
[2]
  LD50: 175 mg/kg

## NCCCCCCNc1ncnc2c1ncn2[C@@H]1O[C@H](CO)[C@@H](OP(=O)(O)O)[C@H]1O [compound 9, N^6-(6-amino-n-hexyl)-3'-AMP]
[1]; [3]
  ED50: 1.9 mg/kg
[1]; [4]
  ED50: 0.7 mg/kg
